US20180169019A1, “PROCESS FOR THE PREPARATION OF POROUS MICROPARTICLES” (BAYER PHARMA AKTIENGESELLSCHAFT, priority 2015, published 2018)

Assay: Solubility in water and organic solvents
Assay type: physicochemical

solubility in acetone: slightly soluble
solubility in ethanol, methanol, ethyl acetate: very slightly soluble
solubility in water and dichloromethane, acetonitrile: practically insoluble
SMILES: O=C(O)CCCCN(CCc1ccccc1OCc1ccc(CCc2ccccc2)cc1)Cc1ccc(C(=O)O)cc1 [Cinaciguat, 4-[((4-carboxybutyl)-{2-[(4-phenethylbenzyl)oxy]phenethyl}amino)methyl]benzoic acid]
